This is an account of results in US11891365B2, “3-alkyl-4-amido-bicyclic [4,5,0] hydroxamic acids as HDAC inhibitors” (Valo Health, Inc., priority 2015, dated 2024).

For this test, the target named is T1, Full length human recombinant HDAC6 protein (Homo sapiens, UniProt Q9UBN7).
T1 sequence (Q9UBN7 1-1215): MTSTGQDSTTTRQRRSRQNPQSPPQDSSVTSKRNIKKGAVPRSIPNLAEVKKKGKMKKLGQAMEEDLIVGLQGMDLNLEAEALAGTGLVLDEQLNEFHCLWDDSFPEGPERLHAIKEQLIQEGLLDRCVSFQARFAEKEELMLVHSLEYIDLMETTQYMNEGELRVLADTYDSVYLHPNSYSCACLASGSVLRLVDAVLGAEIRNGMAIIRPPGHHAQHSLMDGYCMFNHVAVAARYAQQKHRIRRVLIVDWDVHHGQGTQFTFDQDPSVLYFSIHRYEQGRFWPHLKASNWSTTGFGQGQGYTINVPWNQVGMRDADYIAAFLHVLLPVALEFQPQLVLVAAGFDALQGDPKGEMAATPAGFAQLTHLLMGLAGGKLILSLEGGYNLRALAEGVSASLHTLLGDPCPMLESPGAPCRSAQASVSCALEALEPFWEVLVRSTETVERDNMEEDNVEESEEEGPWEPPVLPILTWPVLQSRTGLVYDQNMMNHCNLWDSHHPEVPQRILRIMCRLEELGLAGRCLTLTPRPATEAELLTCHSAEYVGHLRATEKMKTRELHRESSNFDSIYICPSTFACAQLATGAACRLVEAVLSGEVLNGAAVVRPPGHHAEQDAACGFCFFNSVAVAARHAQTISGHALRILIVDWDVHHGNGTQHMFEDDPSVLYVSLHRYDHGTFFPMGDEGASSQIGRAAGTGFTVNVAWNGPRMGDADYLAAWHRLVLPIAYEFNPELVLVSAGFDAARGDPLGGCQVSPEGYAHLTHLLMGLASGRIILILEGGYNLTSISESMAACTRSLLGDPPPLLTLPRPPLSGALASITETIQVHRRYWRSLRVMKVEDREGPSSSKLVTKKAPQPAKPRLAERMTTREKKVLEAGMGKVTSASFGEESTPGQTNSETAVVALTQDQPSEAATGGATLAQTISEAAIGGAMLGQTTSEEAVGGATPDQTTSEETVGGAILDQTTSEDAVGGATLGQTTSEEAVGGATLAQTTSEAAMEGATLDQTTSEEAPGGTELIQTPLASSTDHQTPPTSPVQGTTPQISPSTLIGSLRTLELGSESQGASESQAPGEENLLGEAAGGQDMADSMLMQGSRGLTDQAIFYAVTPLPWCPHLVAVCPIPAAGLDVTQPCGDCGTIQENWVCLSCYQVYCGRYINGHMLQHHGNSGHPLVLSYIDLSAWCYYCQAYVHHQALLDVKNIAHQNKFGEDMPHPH
Nature of the test: In vitro histone deacetylase assay: enzymatic HDAC6 electrophoretic mobility shift assay. In kind it is biochemical. The following applies: 1 nM enzyme, 2 μM peptide substrate RHKK(Ac)-NH2, 25° C., 12 concentrations; read-out: Inhibitory Concentration (IC50) Values against HDAC6, Activity Range. (In general: In EMSA bound probe runs differently from free probe, usually more slowly.)

Consider `CC(=O)N1CCC(C(=O)N2Cc3ccc(C(=O)NO)cc3OC[C@@H]2C)C1` (stereo partly drawn) [(3S)-4-(1-acetylpyrrolidine-3-carbonyl)-N-hydroxy-3-methyl-2,3,4,5-tetrahydrobenzo[f][1,4]oxazepine-8-carboxamide], for which the IC50 was ≤ 100 nM.

In the case of `C[C@H]1COc2cc(C(=O)NO)ccc2CN1C(=O)CCOCC(F)(F)F` [(S)-N-hydroxy-3-methyl-4-(3-(2,2,2-trifluoroethoxy)propanoyl)-2,3,4,5-tetrahydrobenzo[f][1,4]oxazepine-8-carboxamide], the IC50 was ≤ 100 nM.

Turning to `C[C@H]1COc2cc(C(=O)NO)ccc2CN1C(=O)CCOC1CCOCC1` [(S)-N-hydroxy-3-methyl-4-(3-((tetrahydro-2H-pyran-4-yl)oxy)propanoyl)-2,3,4,5-tetrahydrobenzo[f][1,4]oxazepine-8-carboxamide], the IC50 was 100 to 500 nM.

In the case of `C[C@H]1COc2cc(C(=O)NO)ccc2CN1C(=O)[C@@H]1CCOC(C)(C)C1` [(S)-4-((R)-2,2-dimethyltetrahydro-2H-pyran-4-carbonyl)-N-hydroxy-3-methyl-2,3,4,5-tetrahydrobenzo[f][1,4]oxazepine-8-carboxamide], the IC50 was ≤ 100 nM.

Regarding `C[C@@H]1CN(C=O)Cc2ccc(C(=O)NO)cc2O1` [(R)-4-formyl-N-hydroxy-2-methyl-2,3,4,5-tetrahydrobenzo[f][1,4]oxazepine-8-carboxamide], the IC50 was ≤ 100 nM.

Consider `C[C@H]1c2ccc(C(=O)NO)cc2OCCN1C(=O)C1CCOCC1` [(S)-N-hydroxy-5-methyl-4-(tetrahydro-2H-pyran-4-carbonyl)-2,3,4,5-tetrahydrobenzo[f][1,4]oxazepine-8-carboxamide], for which the IC50 is ≤ 100 nM.

As to `CC(C)[C@@H]1CN(C(=O)C2(C)CCC2)Cc2ccc(C(=O)NO)cc2O1` [(R)-N-hydroxy-2-isopropyl-4-(1-methylcyclobutane-1-carbonyl)-2,3,4,5-tetrahydrobenzo[f][1,4]oxazepine-8-carboxamide], the IC50 lay in the range of 100 to 500 nM.

For `CCC(Oc1ccccc1)C(=O)N1CCOc2cc(C(=O)NO)ccc2C1` (stereo not shown) [N-hydroxy-4-(2-phenoxybutanoyl)-2,3,4,5-tetrahydrobenzo[f][1,4]oxazepine-8-carboxamide], the IC50 was in the range of 100 to 500 nM.

For `C[C@H]1COc2cc(C(=O)NO)ccc2CN1C(=O)C1CCC(OC(F)(F)F)CC1` (single isomer, unassigned), the IC50 is ≤ 100 nM.

Regarding `O=C(NO)c1ccc2c(c1)OCCN(C(=O)C1(c3ccccn3)CC1)C2` [N-hydroxy-4-(1-(pyridin-2-yl)cyclopropane-1-carbonyl)-2,3,4,5-tetrahydrobenzo[f][1,4]oxazepine-8-carboxamide], the IC50 was ≤ 100 nM.

For `O=C(NO)c1ccc2c(c1)OCCN(C(=O)C1CC1c1ccccc1)C2` (stereo not shown) [N-hydroxy-4-(2-phenylcyclopropane-1-carbonyl)-2,3,4,5-tetrahydrobenzo[f][1,4]oxazepine-8-carboxamide], the IC50 is ≤ 100 nM.

Consider `C[C@H]1COc2cc(C(=O)NO)ccc2CN1C(=O)C1CCCOCC1` (stereo partly drawn) [(3S)-N-hydroxy-3-methyl-4-(oxepane-4-carbonyl)-2,3,4,5-tetrahydrobenzo[f][1,4]oxazepine-8-carboxamide], for which the IC50 is ≤ 100 nM.

`O=C(NO)c1ccc2c(c1)OCCN(C(=O)C1(c3ccccc3)CCC1)C2` [N-hydroxy-4-(1-phenylcyclobutane-1-carbonyl)-2,3,4,5-tetrahydrobenzo[f][1,4]oxazepine-8-carboxamide]: the IC50 was ≤ 100 nM.

For `CN(C)C(=O)C1CN(C(=O)C2CCOCC2)Cc2ccc(C(=O)NO)cc2O1` (stereo not shown) [N8-hydroxy-N2,N2-dimethyl-4-(tetrahydro-2H-pyran-4-carbonyl)-2,3,4,5-tetrahydrobenzo[f][1,4]oxazepine-2,8-dicarboxamide], the IC50 was 100 to 500 nM.

For the compound `O=C1CN(C(=O)C2CCCCC2)Cc2cc(C(=O)NO)ccc2N1` [4-(cyclohexanecarbonyl)-N-hydroxy-2-oxo-2,3,4,5-tetrahydro-1H-benzo[e][1,4]diazepine-7-carboxamide], the IC50 was > 500 nM.

Take `CN(CC(=O)N1CCOc2cc(C(=O)NO)ccc2C1)S(C)(=O)=O` [N-hydroxy-4-(N-methyl-N-(methylsulfonyl)glycyl)-2,3,4,5-tetrahydrobenzo[f][1,4]oxazepine-8-carboxamide]: the IC50 was in the range of 100 to 500 nM.

`CC(C)(C(=O)N1CCOc2cc(C(=O)NO)ccc2C1)c1ccc(-c2ccccc2)cc1` [4-(2-([1,1′-biphenyl]-4-yl)-2-methylpropanoyl)-N-hydroxy-2,3,4,5-tetrahydrobenzo[f][1,4]oxazepine-8-carboxamide]: the IC50 lay within 100 to 500 nM.

On to `O=C(NO)c1ccc2c(c1)OCCN(C(=O)C(c1ccccc1)N1CCC(O)CC1)C2` (stereo not shown) [N-hydroxy-4-(2-(4-hydroxypiperidin-1-yl)-2-phenylacetyl)-2,3,4,5-tetrahydrobenzo[f][1,4]oxazepine-8-carboxamide], for which the IC50 was 100 to 500 nM.

In the case of `COC[C@@H]1CN(C(=O)C2CCOCC2)Cc2ccc(C(=O)NO)cc2O1` [(S)-N-hydroxy-2-(methoxymethyl)-4-(tetrahydro-2H-pyran-4-carbonyl)-2,3,4,5-tetrahydrobenzo[f][1,4]oxazepine-8-carboxamide], the IC50 was 100 to 500 nM.

With `CO[C@H]1C[C@@H](C(=O)N2Cc3ccc(C(=O)NO)cc3OC[C@@H]2C)C1`, the IC50 is ≤ 100 nM.

For the compound `O=C(NO)c1ccc2c(c1)OCCN(C(=O)c1ccc(OC(F)F)cc1)C2` [4-(4-(difluoromethoxy)benzoyl)-N-hydroxy-2,3,4,5-tetrahydrobenzo[f][1,4]oxazepine-8-carboxamide], the IC50 lay in the range of 100 to 500 nM.

`COCC1(C(=O)N2Cc3ccc(C(=O)NO)cc3OC[C@@H]2C)COC1` [(S)-N-hydroxy-4-(3-(methoxymethyl)oxetane-3-carbonyl)-3-methyl-2,3,4,5-tetrahydrobenzo[f][1,4]oxazepine-8-carboxamide]: the IC50 was ≤ 100 nM.

As to `COc1ccc(CC(=O)N2CC(=O)Nc3ccc(C(=O)NO)cc3C2)cc1` [N-hydroxy-4-(2-(4-methoxyphenyl)acetyl)-2-oxo-2,3,4,5-tetrahydro-1H-benzo[e][1,4]diazepine-7-carboxamide], the IC50 was > 500 nM.

In the case of `O=C(NO)c1ccc2c(c1)OCCN(C(=O)c1ccc3c(c1)OCO3)C2` [4-(benzo[d][1,3]dioxole-5-carbonyl)-N-hydroxy-2,3,4,5-tetrahydrobenzo[f][1,4]oxazepine-8-carboxamide], the IC50 was ≤ 100 nM.

For `O=C(NO)c1ccc2c(c1)OCCN(C(=O)C1(c3ccc(Cl)cc3)CC1)C2` [4-(1-(4-chlorophenyl)cyclopropane-1-carbonyl)-N-hydroxy-2,3,4,5-tetrahydrobenzo[f][1,4]oxazepine-8-carboxamide], the IC50 was ≤ 100 nM.

Consider `C[C@H]1COc2cc(C(=O)NO)ccc2CN1C(=O)[C@@]1(C)CCCCO1` [(S)-N-hydroxy-3-methyl-4-((R)-2-methyltetrahydro-2H-pyran-2-carbonyl)-2,3,4,5-tetrahydrobenzo[f][1,4]oxazepine-8-carboxamide], for which the IC50 is 100 to 500 nM.

Regarding `O=C(NO)c1ccc2c(c1)OCCN(C(=O)C1CC13CCNC3)C2` (stereo not shown) [N-hydroxy-4-(5-azaspiro[2.4]heptane-1-carbonyl)-2,3,4,5-tetrahydrobenzo[f][1,4]oxazepine-8-carboxamide], the IC50 was > 500 nM.

On to `CC1(C)CC(C(=O)N2CCOc3cc(C(=O)NO)ccc3C2)CCO1` (stereo not shown) [4-(2,2-dimethyltetrahydro-2H-pyran-4-carbonyl)-N-hydroxy-2,3,4,5-tetrahydrobenzo[f][1,4]oxazepine-8-carboxamide], for which the IC50 lay within 100 to 500 nM.

With `CC(=O)N1Cc2ccc(C(=O)NO)cc2OC[C@@H]1C(C)C` [(S)-4-acetyl-N-hydroxy-3-isopropyl-2,3,4,5-tetrahydrobenzo[f][1,4]oxazepine-8-carboxamide], the IC50 fell in the range of 100 to 500 nM.

With `O=C(NO)c1ccc2c(c1)OCCN(C(=O)C1(c3cccs3)CC1)C2` [N-hydroxy-4-(1-(thiophen-2-yl)cyclopropane-1-carbonyl)-2,3,4,5-tetrahydrobenzo[f][1,4]oxazepine-8-carboxamide], the IC50 is ≤ 100 nM.

With `C[C@H]1COc2cc(C(=O)NO)ccc2CN1C(=O)[C@@H]1CCCCO1` [(S)-N-hydroxy-3-methyl-4-((S)-tetrahydro-2H-pyran-2-carbonyl)-2,3,4,5-tetrahydrobenzo[f][1,4]oxazepine-8-carboxamide], the IC50 was ≤ 100 nM.
